# Values of other authors, collected in PMC12030314, “Biomarker-Driven Pharmacokinetics and Efficacy of Polymyxin B in Critically Ill Patients with XDR-GN Pneumonia” (Pharmaceuticals, 2025).
# Like-named read-outs stand apart in the source and are kept apart here.
# Tests used:
# [1] = ref Lamer et al. 103, cited from earlier work
# [2] = significant individual variation; cited from earlier work
# Text: Colistin (colistin methanesulfonate, CMS) and polymyxin B (PMB) are polymyxins that were approved for clinical use in the 1950s worldwide. Colistin is clinically administered as a prodrug, which requires conversion to the active form in vivo. […] The elimination of colistin is primarily dependent on renal function. Patients with renal impairment are prone to drug accumulation and increased nephrotoxicity risk. PMB is ... || Finally, we cannot rule out the possibility of the potential impacts of other combined drugs on PMB PK and the heterogeneity among the patients in our study. To date, little evidence supports the conclusion that the combined use of other drugs affects PMB PK. Studies have shown that urinary recovery from PMB is low (<5%). […] Further studies examining the nonrenal routes of PMB elimination are warranted, ...
Compound,ELF/plasma value ([1]; patients with lung inflammation (ELF albumin ≥ 3.4 mg/mL)),ELF/plasma value ([1]; patients without lung inflammation (ELF albumin <3.4 mg/mL)),conversion efficiency of the prodrug to the active form in vivo [2]
CN[C@H](CC(C)C)C(=O)N[C@H]1C(=O)N[C@@H](CC(N)=O)C(=O)N[C@H]2C(=O)N[C@H]3C(=O)N[C@H](C(=O)N[C@H](C(=O)O)c4cc(O)cc(O)c4-c4cc3ccc4O)[C@H](O)c3ccc(c(Cl)c3)Oc3cc2cc(c3O[C@@H]2O[C@H](CO)[C@@H](O)[C@H](O)[C@H]2O[C@H]2C[C@](C)(N)[C@H](O)[C@H](C)O2)Oc2ccc(cc2Cl)[C@H]1O [vancomycin],0.246 [0.192–0.426],0.14 [0.023–0.285],
colistin methanesulfonate,,,20–25%
